Drawing on US7638515B2, “Tetrahydronaphthalene derivatives, process for their production and their use as anti-inflammatory agents” (Bayer Schering Pharma Aktiengesellschaft, priority 2003, dated 2009), this text covers IC50 and melting point for twelve molecules.

The target in one data set is T1, progesterone receptor (PR) (Homo sapiens, UniProt P06401).
T1 construct: made in house
T1 sequence (P06401 1-933): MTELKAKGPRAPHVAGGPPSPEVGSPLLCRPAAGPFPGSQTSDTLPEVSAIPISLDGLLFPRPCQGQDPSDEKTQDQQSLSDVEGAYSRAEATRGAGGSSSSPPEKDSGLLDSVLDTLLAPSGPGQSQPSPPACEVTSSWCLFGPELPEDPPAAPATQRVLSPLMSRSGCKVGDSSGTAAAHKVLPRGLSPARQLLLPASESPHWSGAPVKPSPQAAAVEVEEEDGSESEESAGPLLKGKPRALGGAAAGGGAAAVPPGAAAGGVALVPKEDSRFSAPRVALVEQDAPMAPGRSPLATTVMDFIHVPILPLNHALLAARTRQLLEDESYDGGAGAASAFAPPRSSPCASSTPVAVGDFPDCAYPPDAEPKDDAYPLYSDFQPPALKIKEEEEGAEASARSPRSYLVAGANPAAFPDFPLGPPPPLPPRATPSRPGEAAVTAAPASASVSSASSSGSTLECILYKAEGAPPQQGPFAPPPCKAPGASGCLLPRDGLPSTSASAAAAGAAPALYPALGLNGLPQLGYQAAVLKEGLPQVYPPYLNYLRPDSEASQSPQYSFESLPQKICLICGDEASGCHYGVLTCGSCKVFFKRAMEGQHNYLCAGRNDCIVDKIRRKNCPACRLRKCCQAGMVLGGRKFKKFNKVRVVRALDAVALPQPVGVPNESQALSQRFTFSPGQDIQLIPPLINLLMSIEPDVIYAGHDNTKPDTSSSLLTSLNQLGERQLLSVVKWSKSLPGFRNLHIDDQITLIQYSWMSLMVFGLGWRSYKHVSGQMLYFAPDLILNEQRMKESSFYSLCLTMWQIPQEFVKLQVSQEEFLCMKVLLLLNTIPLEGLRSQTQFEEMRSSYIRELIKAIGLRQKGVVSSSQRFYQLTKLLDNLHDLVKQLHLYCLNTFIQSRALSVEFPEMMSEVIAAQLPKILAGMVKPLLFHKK
The data set can be described thus: Binding to the progesterone receptor, recombinantly produced receptor.
Conditions: not given
An excerpt:
(§1) The binding of the substances to the glucocorticoid receptor (GR) and other steroid-hormone receptors (mineral corticoid receptor (MR), progesterone receptor (PR) and androgen receptor (AR)) is examined with the aid of recombinantly produced receptors. Cytosol preparations of Sf9 cells, which had been infected with recombinant baculoviruses that code for the GR, are used for the binding studies. In comparison to the reference substance [^3H]-dexamethasone, the substances show a high affinity to the GR.
As for `CC1(C)CC(O)(C(F)(F)F)C(Nc2cccc3[nH]ncc23)c2cc(F)cc(O)c21` (centres unmarked) [Example 49, 7-Fluoro-1-[(1H-indazol-4-yl)amino]-4,4-dimethyl-2-(trifluoromethyl)-1,2,3,4-tetrahydronaphthalene-2,5-diol], the IC50 – broadly, the point on the concentration scale where inhibition reaches its midpoint – was 460 nM.

In another data set the test system is secretion of cytokine IL-8 in the human monocyte cell line THP-1. The data set can be described thus: Inhibition of LPS-triggered secretion of cytokine IL-8 in THP-1 cells (ELISA). As to conditions: THP-1, supernatant ELISA, read-out: IC50(IL8). It counts as cell-based. As to the method: The concentration of the cytokines was determined in the supernatant by means of commercially available ELISA kits.
For orientation: ELISA stands for enzyme-linked immunosorbent assay.
Take `CC1(C)CC(O)(C(F)(F)F)C(Nc2cccc3[nH]ncc23)c2cc(F)cc(O)c21` (centres unmarked) [Example 49, 7-Fluoro-1-[(1H-indazol-4-yl)amino]-4,4-dimethyl-2-(trifluoromethyl)-1,2,3,4-tetrahydronaphthalene-2,5-diol]: the IC50 was 19 nM.

Tested on in the next data set: not given
Assay: not given
Conditions: not given
As to `CC1(C)CC(O)(C(F)(F)F)C(Nc2cccc3[nH]ncc23)c2c(F)ccc(F)c21` (racemic) [Example 105, Rac.-5,8-Difluoro-1-[(1H-indazol-4-yl)amino]-4,4-dimethyl-2-(trifluoromethyl)-1,2,3,4-tetrahydronaphthalen-2-ol], the melting point (as a rule, the temperature of the solid-liquid transition) was in the range of 209 to 221 °C. Turning to `CC1(C)CC(O)(C(F)(F)F)C(Nc2cccc3[nH]c(=O)ccc23)c2cc(O)c(Cl)cc21` (centres unmarked) [Example 134, 5-(6-Chloro-2,7-dihydroxy-4,4-dimethyl-2-(trifluoromethyl)-1,2,3,4-tetrahydronaphthalen-1-ylamino)-1H-quinolin-2-one], the melting point is 158 °C.

Take `COc1ccc2c(c1)C(Nc1ccc(F)c3nc(C)ncc13)C(O)(C(F)(F)F)CC2(C)C` (centres unmarked) [Example 135, 1-(8-Fluoro-2-methylquinazolin-5-ylamino)-7-methoxy-4,4-dimethyl-2-(trifluoromethyl)-1,2,3,4-tetrahydronaphthalen-2-ol]: the melting point stood at 97 °C.

As for `COc1ccc2c(c1)C(Nc1cccc3[nH]c(=O)ccc13)C(O)(C(F)(F)F)CC2(C)C` (centres unmarked) [Example 136, 5-(2-Hydroxy-7-methoxy-4,4-dimethyl-2-(trifluoromethyl)-1,2,3,4-tetrahydronaphthalen-1-ylamino)-1H-quinolin-2-one], the melting point came to 128 °C.

In turn, `COc1ccc2c(c1)C(Nc1cccc3c(=O)[nH]ccc13)C(O)(C(F)(F)F)CC2(C)C` (centres unmarked) [Example 137, 5-(2-Hydroxy-7-methoxy-4,4-dimethyl-2-(trifluoromethyl)-1,2,3,4-tetrahydronaphthalen-1-ylamino)-2H-isoquinolin-1-one] showed a melting point of 112 °C. The molecule `COc1ccc2c(c1)C(Nc1cccc3c(=O)[nH]ncc13)C(O)(C(F)(F)F)CC2(C)C` (centres unmarked) [Example 138, 5-(2-Hydroxy-7-methoxy-4,4-dimethyl-2-(trifluoromethyl)-1,2,3,4-tetrahydronaphthalen-1-ylamino)-2H-phthalazin-1-one] yielded a melting point of 197 °C. Take `COc1ccc2c(c1)C(Nc1cccc3nc(C)ccc13)C(O)(C(F)(F)F)CC2(C)C` (centres unmarked) [Example 139, 7-Methoxy-4,4-dimethyl-1-(2-methylquinolin-5-ylamino)-2-(trifluoromethyl)-1,2,3,4-tetrahydronaphthalen-2-ol]: the melting point came to 85 °C. In turn, `Cc1ccc2c(NC3c4cc(O)ccc4C(C)(C)CC3(O)C(F)(F)F)cccc2n1` (centres unmarked) [Example 140, 4,4-Dimethyl-1-(2-methylquinolin-5-ylamino)-2-(trifluoromethyl)-1,2,3,4-tetrahydronaphthalene-2,7-diol] registered a melting point of 127 °C. Same read-out and setting: the value for `CC1(C)CC(O)(C(F)(F)F)C(Nc2cccc3c(=O)[nH]ncc23)c2cc(O)ccc21` (centres unmarked) [Example 141, 5-(2,7-Dihydroxy-4,4-dimethyl-2-(trifluoromethyl)-1,2,3,4-tetrahydronaphthalen-1-ylamino)-2H-phthalazin-1-one] was 116 °C; that for `COc1cccc2c1CCC(O)(C(F)(F)F)C2Nc1cccc2[nH]c(=O)ccc12` (centres unmarked) [Example 144, 5-(2-Hydroxy-5-methoxy-2-(trifluoromethyl)-1,2,3,4-tetrahydronaphthalen-1-ylamino)-1H-quinolin-2-one] was 228 °C.

As to `COc1cccc2c1CCC(O)(C(F)(F)F)C2Nc1ccc(F)c2nc(C)ncc12` (centres unmarked) [Example 145, 1-(8-Fluoro-2-methylquinazolin-5-ylamino)-5-methoxy-2-(trifluoromethyl)-1,2,3,4-tetrahydro-naphthalen-2-ol], the melting point turned out to be 132 °C.

Another data set deals with T2, glucocorticoid receptor (GR) (Homo sapiens, UniProt P04150).
T2 construct: made in house; host or cells: Sf9 cells infected with recombinant baculovirus (cytosol preparation)
T2 sequence (P04150 1-777): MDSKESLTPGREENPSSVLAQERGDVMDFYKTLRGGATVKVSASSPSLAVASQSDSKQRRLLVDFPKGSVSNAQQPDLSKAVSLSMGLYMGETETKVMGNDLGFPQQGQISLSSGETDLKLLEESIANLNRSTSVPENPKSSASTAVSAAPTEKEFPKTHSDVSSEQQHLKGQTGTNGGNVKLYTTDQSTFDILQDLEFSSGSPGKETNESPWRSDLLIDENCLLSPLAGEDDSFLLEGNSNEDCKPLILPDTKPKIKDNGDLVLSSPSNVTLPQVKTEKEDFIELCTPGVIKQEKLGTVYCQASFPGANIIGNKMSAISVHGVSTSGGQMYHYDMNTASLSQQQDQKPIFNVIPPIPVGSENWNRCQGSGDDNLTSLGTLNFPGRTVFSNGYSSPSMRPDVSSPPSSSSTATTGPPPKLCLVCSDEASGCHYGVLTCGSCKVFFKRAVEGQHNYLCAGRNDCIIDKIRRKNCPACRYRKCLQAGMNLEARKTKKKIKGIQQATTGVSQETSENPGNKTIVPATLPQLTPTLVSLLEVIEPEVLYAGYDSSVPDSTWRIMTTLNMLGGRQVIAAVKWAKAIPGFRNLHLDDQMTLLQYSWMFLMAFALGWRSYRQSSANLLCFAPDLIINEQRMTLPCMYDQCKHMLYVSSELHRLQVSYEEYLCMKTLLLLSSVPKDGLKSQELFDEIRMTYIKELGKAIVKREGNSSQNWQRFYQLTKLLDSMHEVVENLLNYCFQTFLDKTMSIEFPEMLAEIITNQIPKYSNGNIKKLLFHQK
The data set can be described thus: Binding to the glucocorticoid receptor, recombinantly produced receptor, cytosol preparations of Sf9 cells. The conditions noted are these: reference substance [3H]-dexamethasone.
Text: as §1
Take `CC1(C)CC(O)(C(F)(F)F)C(Nc2cccc3[nH]ncc23)c2cc(F)cc(O)c21` (centres unmarked) [Example 49, 7-Fluoro-1-[(1H-indazol-4-yl)amino]-4,4-dimethyl-2-(trifluoromethyl)-1,2,3,4-tetrahydronaphthalene-2,5-diol]: the IC50 stood at 95 nM.
